The values below come from patent US20250332173A1, “COMPOUNDS AND METHODS FOR MODULATING NUCLEIC ACID SPLICING” (REMIX THERAPEUTICS INC., priority 2021, published 2025).

One test has as its system HTT mRNA. The experiment in a line: RT-qPCR splicing assay, HTT canonical junction (CJ) and alternative junction (AJ) mRNA. The format is cell-based, human. The following applies: Homo sapiens; for AC50: increase in HTT alternative junction (AJ) mRNA, read-out: HTT AJ AC50. How it is done: (§1) The expression of a target mRNA was measured by detecting the formation of an exon-exon junction in the canonical transcript (CJ). A compound mediated exon-inclusion event was detected by observing an increase in formation of a new junction with an alternative exon (AJ). Real-time qPCR assays were used to detect these splicing switches and interrogate the potency of various compounds towards different target genes. A high-throughput real time quantitative PCR (RT-qPCR) assay was developed to measure these two isoforms of the mRNA (CJ and AJ) for exemplary genes, such as HTT, SMN2, and MYB, together with a control housekeeping gene, GAPDH or GUSB or PPIA, used for normalization. Briefly, the A673 or K562 cell line was treated with various compounds described herein (e.g., compounds of Formula (I)). After treatment, the levels of the HTT, MYB, or SMN2 mRNA targets were determined from each sample of cell lysate by cDNA synthesis followed by qPCR.
(§2) • Cells-to-CT 1-step kit: ThermoFisher A25602, Cells-to-CT lysis reagent: ThermoFisher 4391851C, TaqMan™ Fast Virus 1-Step Master Mix: ThermoFisher 4444436 • GAPDH: VIC-PL, ThermoFisher 4326317E (Assay: Hs99999905_m1)—used for K562/suspension cell lines • GUSB: VIC-PL, ThermoFisher 4326320E (Assay: Hs99999908_m1)—used for K562/suspension cell lines • PPIA: VIC-PL, ThermoFisher 4326316E (Assay: Hs99999904_m1)—used for A673/adherent cell lines
(§3) The A673 cell line was cultured in DMEM with 10% FBS. Cells were diluted with full growth media and plated in a 96-well plate (15,000 cells in 100 ul media per well). The plate was incubated at 37° C. with 5% CO2 for 24 hours to allow cells to adhere. An 11-point 3-fold serial dilution of the compounds was made in DMSO then diluted in media in an intermediate plate. Compounds were transferred from the intermediate plate to the cell plate with the top dose at a final concentration of 10 uM in the well. Final DMSO concentration was kept at or below 0.25%. The cell plate was returned to the incubator at 37° C. with 5% CO2 for an additional 24 hours.
(§4) The K562 cell line was cultured in IMDM with 10% FBS. For K562, cells were diluted with full growth media and plated in either a 96-well plate (50,000 cells in 50 uL media per well) or a 384-well plate (8,000-40,000 cells in 45 uL media per well). An 11-point 3-fold serial dilution of the compounds were made in DMSO then diluted in media in an intermediate plate. Compound was transferred from the intermediate plate to the cell plate with the top dose at a final concentration of 10 uM in the well. Final DMSO concentration was kept at or below 0.25%. Final volume was 100 uL for 96-well plate and 50 uL for 384-well plate. The cell plate was then placed in an incubator at 37° C. with 5% CO2 for 24 hours.
(§5) The cells were then gently washed with 50 uL-100 uL cold PBS before proceeding to addition of lysis buffer. 30 uL-50 uL of room temperature lysis buffer with DNAse I (and optionally RNAsin) was added to each well. Cells were shaken/mixed thoroughly at room temperature for 5-10 minutes for lysis to take place and then 3 uL-5 uL of room temperature stop solution was added and wells were shaken/mixed again. After 2-5 minutes, the cell lysate plate was transferred to ice for RT-qPCR reaction setup. The lysates could also be frozen at −80° C. for later use.
(§6) In some cases, a direct lysis buffer was used. An appropriate volume of 3× lysis buffer (10 mM Tris, 150 mM NaCl, 1.5%-2.5% Igepal and 0.1-1 U/uL RNAsin, pH 7.4) was directly added to either K562 or A673 cells in media and mixed by pipetting 3 times. The plates were then incubated at room temperature with shaking/rocking for 20-50 minutes to allow for lysis to take place. After this time, the cell lysate plate was transferred to ice to set up for the RT-qPCR reactions. The lysates could also be frozen at −80° C. for later use.
In general terms: Quantitative PCR measures a nucleic acid by following its amplification.

In the next test the test system is MYB mRNA. The experiment in a line: RT-qPCR splicing assay, MYB canonical junction (CJ) and alternative junction (AJ) mRNA. To be noted: Homo sapiens; for AC50: increase in MYB alternative junction (AJ) mRNA, read-out: MYB AJ AC50. Type of test: cell-based, human. As to the method: as §1, §2, §3, §4, §5, §6
Another test deals with Target C. The experiment in a line: RT-qPCR splicing assay panel, Target C canonical junction (CJ) mRNA. The format is cell-based, human. To be noted: Homo sapiens. How it is done:
as §1, §3, §4, §5, §6
(§7) To set up 10 uL RT-qPCR reactions, cell lysates were transferred to 384-well qPCR plates containing the master mix according to the table below. The plates were sealed, gently vortexed, and spun down before the run. The volumes were adjusted accordingly in some instances where the reaction was carried in 20 uL. The table below summarizes the components of the RT-qPCR reactions:
(§8) The RT-qPCR reaction was performed using a QuantStudio (ThermoFisher) under the following fast cycling conditions.

The test system of the next test is SMN2 mRNA. The experiment in a line: RT-qPCR splicing assay, SMN2 canonical junction (CJ) mRNA. The format is cell-based, human. To be noted: Homo sapiens; Table 5 panel; canonical junction qPCR; compound concentration having 50% response in CJ decrease; read-out: SMN2 IC50 (decrease in CJ mRNA levels). As to the method:
as §1, §3, §4, §5, §6, §7, §8

Test [1] concerns K562 (human chronic myelogenous leukemia) cells. The experiment in a line: Cell Titer Glo 2.0 cell viability assay. The format is cell-based. The following applies: Homo sapiens, K562, 72 h, K562 cells, 72 hours, Cell Titer Glo 2.0; read-out: K562 GI50. On the technique in general: ATP-based viability assays read luminescence as a measure of living cells.
[2] abbreviates: decrease in HTT canonical junction (CJ) mRNA, RT-qPCR, read-out: HTT CJ IC50.
The mark [3] stands for this setting: Table 5 panel, canonical junction qPCR, compound concentration having 50% response in CJ decrease, read-out: HTT IC50 (decrease in CJ mRNA levels).
[4] abbreviates: Table 5 panel, canonical junction qPCR, compound concentration having 50% response in CJ decrease, read-out: MYB IC50 (decrease in CJ mRNA levels).
Setting [5] is: decrease in MYB canonical junction (CJ) mRNA, RT-qPCR, read-out: MYB CJ IC50.
[6] abbreviates: Table 5 panel, canonical junction qPCR, compound concentration having 50% response in CJ decrease, read-out: Target C IC50 (decrease in CJ mRNA levels).
Where [7] appears, read: canonical junction qPCR panel, Table 5, read-out: HTT (decrease in CJ mRNA levels, IC50).
Where [8] appears, read: canonical junction qPCR panel, Table 5, read-out: MYB (decrease in CJ mRNA levels, IC50).
Where [9] appears, read: canonical junction qPCR panel, Table 5, read-out: Target C (decrease in CJ mRNA levels, IC50).

Each structure is given as a SMILES string. Like-named read-outs stand apart in the source and are kept apart here. Bounds are passed on as bounds.

What is called IC50 is the point on the concentration scale where inhibition reaches its midpoint. A word on the AC50: it is the midpoint of the concentration-response curve, whichever way the signal moves. `CN1CCN(c2ccc3nc(-c4ccc5nn(C)cc5c4)[nH]c(=O)c3c2)CC1` [Compound 108]: the IC50 with HTT mRNA (setting [2]) is more than 10000 nM; in the test on HTT mRNA (setting [3]), more than 10000 nM; in the test on MYB mRNA (setting [4]), more than 10000 nM; with MYB mRNA (setting [5]), more than 10000 nM; with Target C (setting [6]) it was 1000 to 10000 nM; in the test on SMN2 mRNA, 1000 to 10000 nM. In addition, the AC50 in the test on HTT mRNA (RT-qPCR) and in the test with MYB mRNA (RT-qPCR) was more than 10000 nM each time.

For `Cc1cn2cc(-c3nc4ccc(N5CCN(C)CC5)cc4c(=O)[nH]3)cc(F)c2n1` [Compound 111], the concentration for half-maximal inhibition (IC50) with HTT mRNA (setting [2]) lay in the range of 1000 to 10000 nM; in the test with HTT mRNA (setting [3]), 1000 to 10000 nM; with MYB mRNA (setting [4]), 1000 to 10000 nM; in the test on MYB mRNA (setting [5]), 1000 to 10000 nM; in the test on Target C (setting [6]), 1000 to 10000 nM; in the test on SMN2 mRNA, 100 to 1000 nM. Further, the AC50 with HTT mRNA (RT-qPCR) and in the test on MYB mRNA (RT-qPCR) was 1000 to 10000 nM in each case.

On to `Cc1cc(-c2ccc3nc(N4CCN(C)CC4)[nH]c(=O)c3c2)cc2cn(C)nc12` [Compound 165], for which the IC50 in the test on HTT mRNA (setting [2]) was more than 10000 nM; in the test with HTT mRNA (setting [3]) it was more than 10000 nM; with SMN2 mRNA, 100 to 1000 nM. Besides, the AC50 in the test with HTT mRNA (RT-qPCR) is more than 10000 nM.

Regarding `Cc1cn2nc(-c3ccc4c(c3)CCN(C3CCNCC3)C4=O)cc(C)c2n1` [Compound 185], the IC50 in the test with HTT mRNA (setting [2]) is 1000 to 10000 nM; in the test on HTT mRNA (setting [3]) it was 100 to 1000 nM; in the test on MYB mRNA (setting [4]), 1000 to 10000 nM; in the test with MYB mRNA (setting [5]) it was 1000 to 10000 nM; with SMN2 mRNA, 100 to 1000 nM. For the same compound, the AC50 with HTT mRNA (RT-qPCR) was in the range of 100 to 1000 nM; with MYB mRNA (RT-qPCR) it was 1000 to 10000 nM.

What is called GI50 is the concentration that inhibits growth by half. On to `Cc1cn2cc(-c3ccc4c(=O)n([C@H]5CCNC6(CC6)C5)ccc4n3)cc(F)c2n1` [Compound 1511], for which the IC50 in the test with HTT mRNA (setting [2]), with HTT mRNA (setting [7]), in the test with MYB mRNA (setting [8]), in the test with MYB mRNA (setting [5]) and in the test on Target C (setting [9]) was 100 to 1000 nM throughout. Moreover, the AC50 in the test on HTT mRNA (RT-qPCR) and with MYB mRNA (RT-qPCR) was 100 to 1000 nM each time. Moreover, in test [1], the GI50 is 100 to 1000 nM.

Turning to `Cc1c(O)c(-c2ncc3c(=O)n([C@@H]4CCNC5(CC5)C4)ccc3n2)cc2cn(C)nc12` [Compound 1513], the IC50 lay in the range of 1000 to 10000 nM in the test with HTT mRNA (setting [2]); 100 to 1000 nM in the test with HTT mRNA (setting [7]); 100 to 1000 nM in the test with MYB mRNA (setting [8]); 100 to 1000 nM in the test with MYB mRNA (setting [5]); 1000 to 10000 nM in the test on Target C (setting [9]). In addition, the AC50 with HTT mRNA (RT-qPCR) and with MYB mRNA (RT-qPCR) was 100 to 1000 nM each time. The 50% growth inhibitory concentration (GI50) in test [1] was 100 to 1000 nM.

As to `Cc1c(O)c(-c2nc(C)c3c(=O)n([C@H]4CCNC5(CC5)C4)ccc3n2)cc2cn(C)nc12` [Compound 1514, 6-[(7S)-4-azaspiro[2.5]octan-7-yl]-2-(6-hydroxy-2,7-dimethyl-indazol-5-yl)-4-methyl-pyrido[4,3-d]pyrimidin-5-one], the IC50 was 1000 to 10000 nM in the test on HTT mRNA (setting [2]); more than 10000 nM in the test with HTT mRNA (setting [7]); 100 to 1000 nM with MYB mRNA (setting [8]); 100 to 1000 nM with MYB mRNA (setting [5]); 1000 to 10000 nM in the test on Target C (setting [9]). In addition, the half-maximal activity concentration (AC50) with HTT mRNA (RT-qPCR) was more than 10000 nM; in the test with MYB mRNA (RT-qPCR), 100 to 1000 nM. Further, the GI50 in test [1] fell in the range of 100 to 1000 nM.

Turning to `Cc1c(O)c(-c2nc(C)c3c(=O)n(C4C[C@H](C)N[C@@H](C)C4)ccc3n2)cc2cn(C)nc12` (stereo partly shown) [Compound 1516], the half-maximal inhibitory concentration (IC50) with HTT mRNA (setting [2]) is 1000 to 10000 nM; in the test on HTT mRNA (setting [7]), 1000 to 10000 nM; in the test with MYB mRNA (setting [8]) it was 100 to 1000 nM; in the test with MYB mRNA (setting [5]) it was 100 to 1000 nM; with Target C (setting [9]), more than 10000 nM. Also, the AC50 in the test on HTT mRNA (RT-qPCR) was in the range of 1000 to 10000 nM; in the test with MYB mRNA (RT-qPCR) it was 100 to 1000 nM. Moreover, in test [1], the GI50 lay within 100 to 1000 nM.

With `Cc1cn2nc(-c3cc(C)c4c(=O)n(C5CCNC6(CC6)C5)ncc4n3)cc(C)c2n1` (stereo not shown) [Compound 1552, 6-(4-azaspiro[2.5]octan-7-yl)-2-(2,8-dimethylimidazo[1,2-b]pyridazin-6-yl)-4-methyl-pyrido[2,3-d]pyridazin-5-one], the IC50 in the test on HTT mRNA (setting [2]), in the test with HTT mRNA (setting [7]), with MYB mRNA (setting [8]), in the test with MYB mRNA (setting [5]) and with Target C (setting [9]) was 100 to 1000 nM in each case. Moreover, the AC50 in the test with HTT mRNA (RT-qPCR) and with MYB mRNA (RT-qPCR) was 100 to 1000 nM in each case. Moreover, the GI50 in test [1] was 100 to 1000 nM.
